Laboratory results reported in article PMC10167746, “Crystal structure of MbnF: an NADPH-dependent flavin monooxygenase from Methylocystis strain SB2” (Acta Crystallographica. Section F, Structural Biology …, 2023).

Key:
MbnF (MbnF-His) = biological target: T1, MbnF (MbnF-His) (Methylocystis sp. SB2, UniProt A0ACD6BAX2); experiment: X-ray crystal structure, […] A; type: binding; settings: co-purified from E. coli, no FAD added; noncovalent; 'in' conformation, all three monomers of the asymmetric unit; crystals pH 6.5, 200 mM NaBr
T1 construct: gene CTY30_04200; full-length, C-terminal His6 tag kept (pET-41a, E. coli BL21(DE3)); monomer in solution (SEC), dimer in crystal

[1] = biological target: T2, MbnF from Methylocystis sp. strain SB2, C-terminally His6-tagged (Methylocystis sp. strain SB2); experiment: native MS; ESI-MS after a SEC column (ACQUITY UPLC Protein BEH SEC) under neutral pH, isocratic 50 mM ammonium acetate pH 6.6; mixture of 1 mg/ml MbnA, 500 µM MbnF, 250 mM NaCl, 50 mM HEPES pH 7.4; settings: both partners purified
T2 construct: MbnF, Methylocystis sp. strain SB2; Computed mass 59.17 kDa as printed; also called MbnF-His; FAD-dependent oxidoreductase; source: E. coli BL21(DE3), pET-41, purified (HisTrap, Mono Q); not shown: His6, C-terminal, kept
T2 chain: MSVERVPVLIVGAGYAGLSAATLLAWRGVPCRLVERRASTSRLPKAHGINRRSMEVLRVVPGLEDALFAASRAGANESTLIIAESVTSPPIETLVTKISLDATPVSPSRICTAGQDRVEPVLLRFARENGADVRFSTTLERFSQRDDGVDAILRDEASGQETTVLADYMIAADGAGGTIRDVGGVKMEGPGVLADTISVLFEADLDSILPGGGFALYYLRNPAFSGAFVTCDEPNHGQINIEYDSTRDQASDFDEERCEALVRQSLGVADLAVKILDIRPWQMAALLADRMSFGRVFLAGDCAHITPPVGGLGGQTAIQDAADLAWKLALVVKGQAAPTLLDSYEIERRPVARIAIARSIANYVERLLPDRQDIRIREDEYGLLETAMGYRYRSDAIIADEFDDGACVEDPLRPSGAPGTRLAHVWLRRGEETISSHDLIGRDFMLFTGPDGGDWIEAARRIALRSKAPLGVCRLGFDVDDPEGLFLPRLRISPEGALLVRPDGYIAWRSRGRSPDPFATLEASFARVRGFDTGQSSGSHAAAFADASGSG

Molecule	X-ray crystal structure, 2.61 A (MbnF (MbnF-His))	binding result [1]
Cc1cc2nc3c(=O)[nH]c(=O)nc-3n(C[C@H](O)[C@H](O)[C@H](O)COP(=O)(O)OP(=O)(O)OC[C@H]3O[C@@H](n4cnc5c(N)ncnc54)[C@H](O)[C@@H]3O)c2cc1C [FAD]	All three monomers of the asymmetric unit bound FAD in the same general conformation	
IRIAKRITLNVIGRASARCASTCAATNG (MbnA, precursor peptide of methanobactin MB-SB2, Methylocystis sp. strain SB2; the natural precursor may have further residues at its N-terminus; also called MB-SB2 peptide precursor; source: synthetic peptide, bought: AnaSpec (~90% pure)) [MbnA peptide (methanobactin MB-SB2 precursor peptide)]		binds
